Assay results reported in PubChem BioAssay AID1259407 (Chemical Carcinogenesis Research Information System (CCRIS), 2018).
Active and inactive are the calls of the source. The rule behind the calls is not given here.

Tested on: CCRIS mutagenicity, Ames/micronucleus/aberration tests
Experiment: CCRIS mutagenicity studies

ClCc1ccccc1
mutagenic call (End Point: IN VITRO CHROMOSOMAL ABERRATIONS, Test System: CHL CELLS, Metabolic Activation: RAT, LIVER, S-9, SODIUM PHENOBARBITAL AND 5,6-BENZOFLAVONE): active; positive (structural changes)
mutagenic call (End Point: IN VITRO MICRONUCLEUS, Test System: CHL/IU CELLS, Metabolic Activation: NONE): active; positive
mutagenic call (Test System: AMES SALMONELLA TYPHIMURIUM, Strain/Indicator: TA97, Metabolic Activation: HAMSTER, LIVER, S-9, AROCLOR 1254 (10%), Method: PREINCUBATION): inactive; negative
mutagenic call (Test System: AMES SALMONELLA TYPHIMURIUM, Strain/Indicator: TA97, Metabolic Activation: HAMSTER, LIVER, S-9, AROCLOR 1254 (30%), Method: PREINCUBATION): inactive; negative
mutagenic call (Test System: AMES SALMONELLA TYPHIMURIUM, Strain/Indicator: TA97, Metabolic Activation: NONE, Method: PREINCUBATION): inactive; negative
mutagenic call (Test System: AMES SALMONELLA TYPHIMURIUM, Strain/Indicator: TA97, Metabolic Activation: RAT, LIVER, S-9, AROCLOR 1254 (10%), Method: PREINCUBATION): inactive; negative
mutagenic call (Test System: AMES SALMONELLA TYPHIMURIUM, Strain/Indicator: TA97, Metabolic Activation: RAT, LIVER, S-9, AROCLOR 1254 (30%), Method: PREINCUBATION): inactive; negative
mutagenic call (Test System: AMES SALMONELLA TYPHIMURIUM, Strain/Indicator: TA98, Metabolic Activation: HAMSTER, LIVER, S-9, AROCLOR 1254 (10%), Method: PREINCUBATION): inactive; negative
mutagenic call (Test System: AMES SALMONELLA TYPHIMURIUM, Strain/Indicator: TA98, Metabolic Activation: HAMSTER, LIVER, S-9, AROCLOR 1254 (30%), Method: PREINCUBATION): inactive; negative
mutagenic call (Test System: AMES SALMONELLA TYPHIMURIUM, Strain/Indicator: TA98, Metabolic Activation: NONE, Method: FLUCTUATION (MICROTITER)): inactive; negative
mutagenic call (Test System: AMES SALMONELLA TYPHIMURIUM, Strain/Indicator: TA98, Metabolic Activation: NONE, Method: PREINCUBATION): inactive; negative
mutagenic call (Test System: AMES SALMONELLA TYPHIMURIUM, Strain/Indicator: TA98, Metabolic Activation: RAT LIVER S-9, AROCLOR 1254, Method: FLUCTUATION (MICROTITER)): inactive; negative
mutagenic call (Test System: AMES SALMONELLA TYPHIMURIUM, Strain/Indicator: TA98, Metabolic Activation: RAT LIVER S-9, PHENOBARBITAL AND BETA-NAPHTHOFLAVONE, Method: PREINCUBATION): inactive; negative
mutagenic call (Test System: AMES SALMONELLA TYPHIMURIUM, Strain/Indicator: TA98, Metabolic Activation: RAT, LIVER, S-9, AROCLOR 1254 (10%), Method: PREINCUBATION): inactive; negative
mutagenic call (Test System: AMES SALMONELLA TYPHIMURIUM, Strain/Indicator: TA98, Metabolic Activation: RAT, LIVER, S-9, AROCLOR 1254 (30%), Method: PREINCUBATION): inactive; negative
mutagenic call (Test System: AMES SALMONELLA TYPHIMURIUM, Strain/Indicator: TA100, Metabolic Activation: HAMSTER, LIVER, S-9, AROCLOR 1254 (10 OR 30%), Method: PREINCUBATION): inactive; negative
mutagenic call (Test System: AMES SALMONELLA TYPHIMURIUM, Strain/Indicator: TA100, Metabolic Activation: NONE, Method: STANDARD PLATE): inactive; negative
mutagenic call (Test System: AMES SALMONELLA TYPHIMURIUM, Strain/Indicator: TA100, Metabolic Activation: RAT, LIVER, S-9, AROCLOR 1254 (10%), Method: PREINCUBATION): inactive; negative
mutagenic call (Test System: AMES SALMONELLA TYPHIMURIUM, Strain/Indicator: TA100, Metabolic Activation: RAT, LIVER, S-9, AROCLOR 1254 (30%), Method: PREINCUBATION): inactive; negative
mutagenic call (Test System: AMES SALMONELLA TYPHIMURIUM, Strain/Indicator: TA100, Method: STANDARD PLATE): active; positive
mutagenic call (Test System: AMES SALMONELLA TYPHIMURIUM, Strain/Indicator: TA1535, Metabolic Activation: HAMSTER, LIVER, S-9, AROCLOR 1254 (10%), Method: PREINCUBATION): inactive; negative
mutagenic call (Test System: AMES SALMONELLA TYPHIMURIUM, Strain/Indicator: TA1535, Metabolic Activation: HAMSTER, LIVER, S-9, AROCLOR 1254 (30%), Method: PREINCUBATION): inactive; negative
mutagenic call (Test System: AMES SALMONELLA TYPHIMURIUM, Strain/Indicator: TA1535, Metabolic Activation: NONE, Method: PREINCUBATION): inactive; negative
mutagenic call (Test System: AMES SALMONELLA TYPHIMURIUM, Strain/Indicator: TA1535, Metabolic Activation: RAT LIVER S-9, PHENOBARBITAL AND BETA-NAPHTHOFLAVONE, Method: PREINCUBATION): inactive; negative
mutagenic call (Test System: AMES SALMONELLA TYPHIMURIUM, Strain/Indicator: TA1535, Metabolic Activation: RAT, LIVER, S-9, AROCLOR 1254 (10%), Method: PREINCUBATION): inactive; negative
mutagenic call (Test System: AMES SALMONELLA TYPHIMURIUM, Strain/Indicator: TA1535, Metabolic Activation: RAT, LIVER, S-9, AROCLOR 1254 (30%), Method: PREINCUBATION): inactive; negative
mutagenic call (Test System: AMES SALMONELLA TYPHIMURIUM, Strain/Indicator: TA1537, Metabolic Activation: HAMSTER, LIVER, S-9, AROCLOR 1254 (10%), Method: PREINCUBATION): inactive; negative
mutagenic call (Test System: AMES SALMONELLA TYPHIMURIUM, Strain/Indicator: TA1537, Metabolic Activation: NONE, Method: FLUCTUATION (MICROTITER)): inactive; negative
mutagenic call (Test System: AMES SALMONELLA TYPHIMURIUM, Strain/Indicator: TA1537, Metabolic Activation: NONE, Method: PREINCUBATION): inactive; negative
mutagenic call (Test System: AMES SALMONELLA TYPHIMURIUM, Strain/Indicator: TA1537, Metabolic Activation: RAT LIVER S-9, AROCLOR 1254, Method: FLUCTUATION (MICROTITER)): inactive; negative
mutagenic call (Test System: AMES SALMONELLA TYPHIMURIUM, Strain/Indicator: TA1537, Metabolic Activation: RAT LIVER S-9, PHENOBARBITAL AND BETA-NAPHTHOFLAVONE, Method: PREINCUBATION): inactive; negative
mutagenic call (Test System: AMES SALMONELLA TYPHIMURIUM, Strain/Indicator: TA1537, Metabolic Activation: RAT, LIVER, S-9, AROCLOR 1254 (10%), Method: PREINCUBATION): inactive; negative
mutagenic call (Test System: AMES SALMONELLA TYPHIMURIUM, Strain/Indicator: TA7001, Metabolic Activation: NONE, Method: FLUCTUATION (MICROTITER)): inactive; negative
mutagenic call (Test System: AMES SALMONELLA TYPHIMURIUM, Strain/Indicator: TA7001, Metabolic Activation: RAT LIVER S-9, AROCLOR 1254, Method: FLUCTUATION (MICROTITER)): inactive; negative
mutagenic call (Test System: AMES SALMONELLA TYPHIMURIUM, Strain/Indicator: TA7002, Metabolic Activation: NONE, Method: FLUCTUATION (MICROTITER)): inactive; negative
mutagenic call (Test System: AMES SALMONELLA TYPHIMURIUM, Strain/Indicator: TA7002, Metabolic Activation: RAT LIVER S-9, AROCLOR 1254, Method: FLUCTUATION (MICROTITER)): inactive; negative
mutagenic call (Test System: AMES SALMONELLA TYPHIMURIUM, Strain/Indicator: TA7003, Metabolic Activation: NONE, Method: FLUCTUATION (MICROTITER)): inactive; negative
mutagenic call (Test System: AMES SALMONELLA TYPHIMURIUM, Strain/Indicator: TA7003, Metabolic Activation: RAT LIVER S-9, AROCLOR 1254, Method: FLUCTUATION (MICROTITER)): inactive; negative
mutagenic call (Test System: AMES SALMONELLA TYPHIMURIUM, Strain/Indicator: TA7004, Metabolic Activation: NONE, Method: FLUCTUATION (MICROTITER)): active; positive
mutagenic call (Test System: AMES SALMONELLA TYPHIMURIUM, Strain/Indicator: TA7004, Metabolic Activation: RAT LIVER S-9, AROCLOR 1254, Method: FLUCTUATION (MICROTITER)): inactive; negative
mutagenic call (Test System: AMES SALMONELLA TYPHIMURIUM, Strain/Indicator: TA7005, Metabolic Activation: NONE, Method: FLUCTUATION (MICROTITER)): active; positive
mutagenic call (Test System: AMES SALMONELLA TYPHIMURIUM, Strain/Indicator: TA7005, Metabolic Activation: RAT LIVER S-9, AROCLOR 1254, Method: FLUCTUATION (MICROTITER)): inactive; negative
mutagenic call (Test System: AMES SALMONELLA TYPHIMURIUM, Strain/Indicator: TA7006, Metabolic Activation: NONE, Method: FLUCTUATION (MICROTITER)): inactive; negative
mutagenic call (Test System: AMES SALMONELLA TYPHIMURIUM, Strain/Indicator: TA7006, Metabolic Activation: RAT LIVER S-9, AROCLOR 1254, Method: FLUCTUATION (MICROTITER)): inactive; negative
mutagenic call (Test System: Ames Salmonella typhimurium, Strain/Indicator: TA98, Metabolic Activation: None, Method: Direct plate-incorporation): inactive; negative (no data given in original article)
mutagenic call (Test System: Ames Salmonella typhimurium, Strain/Indicator: TA98, Metabolic Activation: None, Method: Direct plate-incorporation using closed container): inactive; negative, moderate toxicity at highest dose.
mutagenic call (Test System: Ames Salmonella typhimurium, Strain/Indicator: TA98, Metabolic Activation: None, Method: Vaporization-diffusion): inactive; negative
mutagenic call (Test System: Ames Salmonella typhimurium, Strain/Indicator: TA98, Metabolic Activation: Rat, liver, S-9, Aroclor 1254, Method: Direct plate-incorporation): inactive; negative (no data given in original article)
mutagenic call (Test System: Ames Salmonella typhimurium, Strain/Indicator: TA98, Metabolic Activation: Rat, liver, S-9, Aroclor 1254, Method: Direct plate-incorporation using closed container): inactive; negative, moderate toxicity at highest dose.
mutagenic call (Test System: Ames Salmonella typhimurium, Strain/Indicator: TA98, Metabolic Activation: Rat, liver, S-9, Aroclor 1254, Method: Preincubation): inactive; negative, strain also tested without s-9, but moderate to high toxicity was obse
mutagenic call (Test System: Ames Salmonella typhimurium, Strain/Indicator: TA98, Metabolic Activation: Rat, liver, S-9, Aroclor 1254, Method: Vaporization-diffusion): inactive; negative
mutagenic call (Test System: Ames Salmonella typhimurium, Strain/Indicator: TA100, Metabolic Activation: None, Method: Direct plate-incorporation): inactive; negative
mutagenic call (Test System: Ames Salmonella typhimurium, Strain/Indicator: TA100, Metabolic Activation: None, Method: Vaporization-diffusion): active; positive at all doses, effect of duration of exposure evident, with only 3-hr ex
mutagenic call (Test System: Ames Salmonella typhimurium, Strain/Indicator: TA100, Metabolic Activation: Rat, liver, S-9, Aroclor 1254, Method: Direct plate-incorporation): active; positive (weak but dose related response; in previous test, higher dose of 2,500
mutagenic call (Test System: Ames Salmonella typhimurium, Strain/Indicator: TA100, Metabolic Activation: Rat, liver, S-9, Aroclor 1254, Method: Preincubation): active; positive, weak, dose-related increase in number of revertants noted. strain also
mutagenic call (Test System: Ames Salmonella typhimurium, Strain/Indicator: TA100, Metabolic Activation: Rat, liver, S-9, Aroclor 1254, Method: Vaporization-diffusion): active; positive at all doses, effect of duration of exposure evident, with only 3-hr ex
mutagenic call (Test System: Ames Salmonella typhimurium, Strain/Sex: TA100, Metabolic Activation: None, Method: Direct plate-incorporation using closed container): active; positive, moderate toxicity at highest dose.
mutagenic call (Test System: Ames Salmonella typhimurium, Strain/Sex: TA100, Metabolic Activation: Rat, liver, S-9, Aroclor 1254, Method: Direct plate-incorporation using closed container): active; positive, moderate toxicity at highest dose.
mutagenic call (Test System: UDS HUMAN FIBROBLASTS, Strain/Indicator: THY INCORP (NON-S-PHASE), Metabolic Activation: NONE, Method: LIQUID SCINTILLATION COUNTING): active; positive
